{"source": "patent US10583206B2", "about": "“Radioactive probe for detecting hydrogen sulfide” (KYUNGPOOK NATIONAL UNIVERSITY INDUSTRY-ACADEMIC COOPERATION …, priority 2015, dated 2020)", "key": {"[1]": {"test": "Hydrogen sulfide selectivity test: decomplexation by ATB 337", "format": "physicochemical", "conditions": "ATB 337 (100 μM); 37° C. for 15 minutes", "method": "(§1) In addition to hydrogen sulfide, many different anions, radicals, etc. exist in the body. Therefore, to examine selective reactivity of the ^64Cu-labeled complex compound according to the present disclosure for sulfide ions, the following experiment was performed.\n(§2) About 45 μCi-55 μCi of the ^64Cu-labeled complex compound (250 μL of triple distilled water) was mixed with 100 μM of various anion solutions (250 μL of triple distilled water) including biothiol, and stirred at 37° C. for 15 minutes.\n(§3) Formation of copper sulfide (^64CuS) was quantified by using a radio-TLC scanner.\n(§4) Various biothiol or salt solutions were prepared by dissolving the compounds in triple distilled water.\n(§5) In Table, concentrations of all biothiols and other competitive materials are 100 μM. Further, specific concentrations of biothiols, anions, and oxidants used in Table are as follows: [L-Cys (1 mM); L-Hcys (10 mM); GSH (10 mM); DL-dithiothretitol (DTT, 100 μM); L-ascorbic acid (L-AsA, 10 mM); 2-mercaptoethanol (2-ME, 10 mM); NaCl (10 mm); KI (1 mM); Na2S2O3 (1 mM); Na2S2O5 (1 mM); NaOAc (1 mM); H2O2 ([…]); NaClO4 (100 μM); NaHCO3 (100 μM); NaNO2 ([…]); NaN3 (100 μM); ATB 337 (100 μM); diallyl trisulphide (100 μM)]."}, "[2]": {"test": "Hydrogen sulfide selectivity test: decomplexation by H2O2", "format": "physicochemical", "conditions": "H2O2 (100 µM); 37° C. for 15 minutes", "method": "as §1, §2, §3, §4, §5"}, "[3]": {"test": "Hydrogen sulfide selectivity test: decomplexation by DAT (diallyl trisulphide)", "format": "physicochemical", "conditions": "DAT = diallyl trisulphide (100 μM); 37° C. for 15 minutes", "method": "as §1, §2, §3, §4, §5"}, "[4]": {"test": "Hydrogen sulfide selectivity test: decomplexation by NaCl", "format": "physicochemical", "conditions": "100 μM or NaCl (10 mm), 37° C. for 15 minutes", "method": "as §1, §2, §3, §4, §5"}, "[5]": {"test": "Hydrogen sulfide selectivity test: decomplexation by NaClO4", "format": "physicochemical", "conditions": "NaClO4 (100 μM); 37° C. for 15 minutes", "method": "as §1, §2, §3, §4, §5"}, "[6]": {"test": "Hydrogen sulfide selectivity test: decomplexation by Kl", "format": "physicochemical", "conditions": "100 μM or KI (1 mM), 37° C. for 15 minutes", "method": "as §1, §2, §3, §4, §5"}, "[7]": {"test": "Hydrogen sulfide selectivity test: decomplexation by NaNO2", "format": "physicochemical", "conditions": "NaNO2 (100 µM); 37° C. for 15 minutes", "method": "as §1, §2, §3, §4, §5"}, "[8]": {"test": "Hydrogen sulfide selectivity test: decomplexation by ME", "format": "physicochemical", "conditions": "2-mercaptoethanol; 100 μM or (2-ME, 10 mM); 37° C. for 15 minutes", "method": "as §1, §2, §3, §4, §5"}, "[9]": {"test": "Hydrogen sulfide selectivity test: decomplexation by NaN3", "format": "physicochemical", "conditions": "NaN3 (100 μM); 37° C. for 15 minutes", "method": "as §1, §2, §3, §4, §5"}, "[10]": {"test": "Hydrogen sulfide selectivity test: decomplexation by Hcys", "format": "physicochemical", "conditions": "100 μM or L-Hcys (10 mM), 37° C. for 15 minutes", "method": "as §1, §2, §3, §4, §5"}, "[11]": {"test": "Hydrogen sulfide selectivity test: decomplexation by DTT", "format": "physicochemical", "conditions": "DL-dithiothretitol (DTT, 100 μM); 37° C. for 15 minutes", "method": "as §1, §2, §3, §4, §5"}, "[12]": {"test": "Test of hydrogen sulfide detection sensitivity (% decomplexation with NaHS, radio-TLC)", "format": "physicochemical", "conditions": "for % decomplexation against 100 μM NaHS solution: Table 3; for % decomplexation: 37° C. for 15 minutes", "method": "To measure hydrogen sulfide detection sensitivity of the ^64Cu-labeled complex compound according to the present disclosure, the following experiment was performed.\nAbout 45 μCi-55 μCi of ^64Cu-labeled complex compound (250 μL of triple distilled water) was mixed with various concentrations of NaHS solution (250 µL of triple distilled water), and stirred at 37° C. for 15 minutes (a total volume used in the reaction was equally 500 μL). After completion of the reaction, the resulting products were strongly stirred to mix appropriately.\nFormation of copper sulfide (^64CuS) was confirmed by quantification of % decomplexation by using a radio-TLC scanner, and results are shown in the following Tables 2 and 3."}, "[13]": {"test": "Hydrogen sulfide selectivity test: decomplexation by NaHCO3", "format": "physicochemical", "conditions": "NaHCO3 (100 μM); 37° C. for 15 minutes", "method": "as §1, §2, §3, §4, §5"}, "[14]": {"test": "Hydrogen sulfide selectivity test: decomplexation by Cys", "format": "physicochemical", "conditions": "100 μM or L-Cys (1 mM), 37° C. for 15 minutes", "method": "as §1, §2, §3, §4, §5"}, "[15]": {"test": "Hydrogen sulfide selectivity test: decomplexation by L-AsA", "format": "physicochemical", "conditions": "L-ascorbic acid; 100 μM or (L-AsA, 10 mM); 37° C. for 15 minutes", "method": "as §1, §2, §3, §4, §5"}, "[16]": {"test": "Hydrogen sulfide selectivity test: decomplexation by GSH", "format": "physicochemical", "conditions": "100 μM or GSH (10 mM), 37° C. for 15 minutes", "method": "as §1, §2, §3, §4, §5"}, "[17]": {"test": "Hydrogen sulfide selectivity test: decomplexation by NaOAc", "format": "physicochemical", "conditions": "100 μM or (1 mM), 37° C. for 15 minutes", "method": "as §1, §2, §3, §4, §5"}, "[18]": {"test": "Hydrogen sulfide selectivity test: decomplexation by Na2S2O3", "format": "physicochemical", "conditions": "100 μM or (1 mM), 37° C. for 15 minutes", "method": "as §1, §2, §3, §4, §5"}, "[19]": {"test": "Hydrogen sulfide selectivity test: decomplexation by Na2S2O5", "format": "physicochemical", "conditions": "100 μM or (1 mM), 37° C. for 15 minutes", "method": "as §1, §2, §3, §4, §5"}, "[20]": {"system": "Paw inflammation model", "format": "in vivo, Balb/c or ICR mice", "conditions": "optical imaging and nuclear medicine imaging", "method": "(1) Paw Pain Inflammation Model\nA small amount of CFA (complete Freund's adjuvant) or formalin was injected into only one paw (right) of the hind paws of Balb/c or ICR mice to establish inflammation models. 1 day after injection of the inflammation inducer, the mice were used in imaging or other in vivo experiments.\nIt is a known fact that inflamed sites show high concentrations of hydrogen sulfide.\nNuclear medicine imaging was measured by using an Inveon PET/CT system of Siemens Healthcare, and optical imaging was measured by using IVIS spectrum CT equipment. Cherenkov radiation emitted from ^64Cu was measured by using a highly sensitive CCD (charge-coupled device) camera.\nImaging was measured for 1 minute to 5 minutes, and a radiation dose was about 50 μCi to 2000 μCi, and photographs were variously taken as needed, such as immediately after first injection, at 1 hour, 4 hours, and 24 hours later."}, "[21]": {"test": "Test of hydrogen sulfide detection over time (^64CuS formation, radio-TLC)", "format": "physicochemical", "set-up": "unit not given here", "conditions": "100 μM NaHS, 37° C.", "method": "To examine reactivity of the ^64Cu-labeled complex compound according to the present disclosure over time, the following experiment was performed.\nA detailed experimental method is as follows.\nAbout 45 μCi-50 μCi of ^64Cu-labeled complex compound (250 μL of triple distilled water) was mixed with 100 μM of NaHS solution ([…] of triple distilled water), and stirred at 37° C. for 15 minutes. Formation of copper sulfide (^64CuS) was quantified by using a radio-TLC scanner."}}, "data": [{"compound": "C1C[SH]2CC[SH]3CC[SH]4CC[N]1[64Cu]243", "note": "(stereo not drawn) [Example 23]", "values": [{"measurement": "Decomplexation [%]", "setting": "[1]", "value": 0.6, "unit": "%"}, {"measurement": "Decomplexation [%]", "setting": "[2]", "value": 0.3, "unit": "%"}, {"measurement": "Decomplexation [%]", "setting": "[3]", "value": 0.4, "unit": "%"}, {"measurement": "Decomplexation [%]", "setting": "[4]", "value": 0.5, "unit": "%"}, {"measurement": "Decomplexation [%]", "setting": "[5]", "value": 0.8, "unit": "%"}, {"measurement": "Decomplexation [%]", "setting": "[6]", "value": 0.2, "unit": "%"}, {"measurement": "Decomplexation [%]", "setting": "[7]", "value": 0.6, "unit": "%"}, {"measurement": "Decomplexation [%]", "setting": "[8]", "value": 0.5, "unit": "%"}, {"measurement": "Decomplexation [%]", "setting": "[9]", "value": 0.8, "unit": "%"}, {"measurement": "Decomplexation [%]", "setting": "[10]", "value": 0.4, "unit": "%"}, {"measurement": "Decomplexation [%]", "setting": "[11]", "value": 0.4, "unit": "%"}, {"measurement": "% decomplexation against 100 μM NaHS solution", "setting": "[12]", "value": "78.3 ± 2.6", "unit": "%"}, {"measurement": "% decomplexation", "setting": "[12]; NaHS 0 μM", "value": 0, "unit": "%"}, {"measurement": "% decomplexation", "setting": "[12]; NaHS 1 μM", "value": 0, "unit": "%"}, {"measurement": "% decomplexation", "setting": "[12]; NaHS 10 μM", "value": 0, "unit": "%"}, {"measurement": "% decomplexation", "setting": "[12]; NaHS 15 μM", "value": 36.4, "unit": "%"}, {"measurement": "% decomplexation", "setting": "[12]; NaHS 20 μM", "value": 49.4, "unit": "%"}, {"measurement": "% decomplexation", "setting": "[12]; NaHS 50 μM", "value": 67.7, "unit": "%"}, {"measurement": "% decomplexation", "setting": "[12]; NaHS 100 μM", "value": 78.2, "unit": "%"}, {"measurement": "Decomplexation [%]", "setting": "[13]", "value": 0.1, "unit": "%"}, {"measurement": "Decomplexation [%]", "setting": "[14]", "value": 0.5, "unit": "%"}, {"measurement": "Decomplexation [%]", "setting": "[15]", "value": 0.4, "unit": "%"}, {"measurement": "Decomplexation [%]", "setting": "[16]", "value": 0.7, "unit": "%"}, {"measurement": "Decomplexation [%]", "setting": "[17]", "value": 0.3, "unit": "%"}, {"measurement": "Decomplexation [%]", "setting": "[18]", "value": 0.2, "unit": "%"}, {"measurement": "Decomplexation [%]", "setting": "[19]", "value": 0.6, "unit": "%"}]}, {"compound": "C/C(=N\\O)[C@@H](C)NCC(C)(C)CN[C@H](C)/C(C)=N/O", "note": "[Example 26]", "values": [{"measurement": "% decomplexation against 100 μM NaHS solution", "setting": "[12]", "value": "62.43 ± 0.87", "unit": "%"}]}, {"compound": "[64Cu+2].c1ccc2c(CN3CCNCCNCCNCC3)c3ccccc3cc2c1", "note": "[Example 2]", "values": [{"measurement": "% decomplexation", "setting": "[12]; NaHS 0 μM", "value": 0, "unit": "%"}, {"measurement": "% decomplexation", "setting": "[12]; NaHS 1 μM", "value": 0, "unit": "%"}, {"measurement": "% decomplexation", "setting": "[12]; NaHS 10 μM", "value": 0, "unit": "%"}, {"measurement": "% decomplexation", "setting": "[12]; NaHS 15 μM", "value": 0, "unit": "%"}, {"measurement": "% decomplexation", "setting": "[12]; NaHS 20 μM", "value": 15, "unit": "%"}, {"measurement": "% decomplexation", "setting": "[12]; NaHS 50 μM", "value": 56, "unit": "%"}, {"measurement": "% decomplexation", "setting": "[12]; NaHS 100 μM", "value": 100, "unit": "%"}, {"measurement": "selective uptake in inflamed sites", "setting": "[20]", "value": "selective uptake"}, {"measurement": "Formation of copper sulfide (^64CuS) over time", "setting": "[21]; 10 sec", "value": 21}, {"measurement": "Formation of copper sulfide (^64CuS) over time", "setting": "[21]; 30 sec", "value": 22}, {"measurement": "Formation of copper sulfide (^64CuS) over time", "setting": "[21]; 60 sec", "value": 33}, {"measurement": "Formation of copper sulfide (^64CuS) over time", "setting": "[21]; 5 min", "value": 82}, {"measurement": "Formation of copper sulfide (^64CuS) over time", "setting": "[21]; 10 min", "value": 100}, {"measurement": "Formation of copper sulfide (^64CuS) over time", "setting": "[21]; 15 min", "value": 100}]}, {"compound": "c1ccc(CNCc2ccccn2)nc1", "note": "[Example 33]", "values": [{"measurement": "% decomplexation against 100 μM NaHS solution", "setting": "[12]", "value": 26.6, "unit": "%"}]}]}
